Measurements taken from publication PMC4788153, “Impact of Cytochrome P450 2D6 Function on the Chiral Blood Plasma Pharmacokinetics of 3,4-Methylenedioxymethamphetamine (MDMA) and Its Phase I and II Metabolites in Humans” (PLoS ONE, 2016).
Counter-ions that a name gives are not always drawn. Like-named read-outs stand apart in the source and are kept apart here.

Legend:
[1] = Chiral plasma pharmacokinetics of bupropion and hydroxybupropion; conditions: bupropion+MDMA vs bupropion+placebo
Protocol: Washout periods between test sessions were at least 10 days. […] Blood samples were collected -2, 0, 0.33, 0.67, 1, 1.5, 2, 2.5, 3, 4, 6, 8, and 24 h after MDMA or placebo administration. All of the subjects were genotyped [47] and phenotyped [48] for CYP2D6 activity. The study included 13 EMs, three IMs, and no PMs (genotyping and phenotyping congruent) [40]. Subjects were also genotyped for CYP2B6 (reduced-activity single nucleotid polymorphism rs3745274 (516G>T, CYP2B6*6 or CYP2B6*9) using commercial TaqMan assay (LuBio Science, Lucerne, Switzerland). There were 9 subjects with the G/G, 6 subjects with the G/T and one subject with the T/T genotype. Subjects with G/T or T/T genotype were considered to have a reduced CYP2B6 function.
The method was fully validated according to national and international guidelines [49, 50].
The time interval after dosing until detection of the first positive sample was designated as the time of first detection (tonset). […] Mann-Whitney tests (95% confidence interval) were used to test for between-subject differences between CYP2D6 EMs (n = 13) and CYP2D6 IMs (n = 3). The statistical analyses were performed using Prism 6.00 software (GraphPad Software, La Jolla, CA, USA).
An aliquot of 550 µl was transferred into an autosampler vial, 50 µl of formic acid were added and the mixture was evaporated to dryness under a gentle stream of nitrogen at 40 °C. The residue was dissolved in 100 µl of mobile phase 20 mM ammonium acetate buffer, pH 6.6 (A) and methanol (B) (1:1, v/v). 10 µl of this solution were injected into the LC-MS/MS system.
The analysis was performed using a Thermo Fischer Ultimate 3000 UHPLC system (Thermo Fisher, San Jose, California, USA) coupled to an ABSciex 5500 QTtrap linear ion trap quadrupole mass spectrometer (ABSciex, Darmstadt/Germany) with positive electrospray ionization (ESI) in multiple reaction monitoring mode (MRM).
The LC settings were as follows: Chiral AGP column (100 x 4.0 mm, 5 µm), gradient elution with 20 mM ammonium formate buffer in water (pH 6.6, A) and methanol (B) . The flow rate was 0.8 ml/min with the following gradient: start conditions 10% B for 0.5 min, 0.5-6 min to 30% B, 6-7 min to 50% B, 7-9 min to 80% B hold at 80% B for 1 min, at 10 min reequilibrating to 10% B for 2 min. Injection volume was 10 µl.
The Turbo V ion source equipped with a stainless steel electrode (100 µm internal diameter) was operated in positive ESI mode with the following MS conditions: gas 1, nitrogen (50 psi); gas 2, nitrogen (60 psi); ion spray voltage, 5500; ion-source temperature, 550 °C; curtain gas, nitrogen (30 psi), collision gas, high. The MS was operated in the MRM mode with a scan time of 50 ms using 3 transitions for each analyte except for the ISs where 1 MRM transition was used. […] The MS was controlled by analyst 1.6.2 software.

[2] = Chiral plasma pharmacokinetics of MDMA and its phase I and II metabolites after controlled MDMA administration; assay type: in vivo, human; conditions: for AUC(0-t) / Tmax / Cmax / half-life: human, plasma; for change in AUC24 after bupropion pretreatment / change in Cmax after bupropion pretreatment: bupropion+MDMA vs placebo+MDMA, unsigned = increase; for reduction of Cmax by bupropion: metabolite stereoisomers, bupropion pretreatment vs placebo (abstract)
Protocol: Blood plasma samples were analyzed non-stereoselectively as reported previously and reanalyzed for the present report using liquid chromatography-mass spectrometry/mass spectrometry after chiral derivatization with Marfey’s reagent as described previously. The method was fully validated, including selectivity, recovery, matrix effects, bias and imprecision, stability, and limit of quantification.

[3] = both sexes, oral, 125 mg, placebo+MDMA (125 mg), CYP2D6 EM, n=13, plasma, read-out: AUC0-24h R
[4] = both sexes, oral, 125 mg, placebo+MDMA (125 mg), CYP2D6 EM, n=13, plasma, read-out: tmax R
[5] = both sexes, oral, bupropion+MDMA (125 mg), CYP2D6 EM (EM/Bup), n=13, plasma, read-out: AUC0-24h R
[6] = both sexes, oral, bupropion+MDMA (125 mg), CYP2D6 EM (EM/Bup), n=13, plasma, read-out: Cmax R
[7] = both sexes, oral, bupropion+MDMA (125 mg), CYP2D6 EM (EM/Bup), n=13, plasma, read-out: t1/2 R (converted)
[8] = both sexes, oral, bupropion+MDMA (125 mg), CYP2D6 EM (EM/Bup), n=13, plasma, read-out: tmax R
[9] = both sexes, oral, placebo+MDMA (125 mg), CYP2D6 EM, n=13, plasma, read-out: Cmax R
[10] = both sexes, oral, placebo+MDMA (125 mg), CYP2D6 EM, n=13, plasma, read-out: t1/2 R (converted)
[11] = bupropion+MDMA (125 mg), CYP2D6 EM (EM/Bup), n=13, plasma
[12] = bupropion-pretreated CYP2D6 EMs
[13] = placebo+MDMA (125 mg), CYP2D6 EM, n=13, plasma
[14] = placebo+MDMA (125 mg), CYP2D6 IM, n=3, plasma
[15] = placebo-pretreated EMs, same-configuration MDMA enantiomer
[16] = both sexes, oral, 125 mg, placebo+MDMA (125 mg), CYP2D6 EM, n=13, plasma, read-out: AUC0-24h S
[17] = both sexes, oral, 125 mg, placebo+MDMA (125 mg), CYP2D6 EM, n=13, plasma, read-out: Cmax S
[18] = both sexes, oral, 125 mg, placebo+MDMA (125 mg), CYP2D6 EM, n=13, plasma, read-out: t1/2 S (converted)
[19] = both sexes, oral, 125 mg, placebo+MDMA (125 mg), CYP2D6 EM, n=13, plasma, read-out: tmax S
[20] = both sexes, oral, bupropion+MDMA (125 mg), CYP2D6 EM (EM/Bup), n=13, plasma, read-out: AUC0-24h S
[21] = both sexes, oral, bupropion+MDMA (125 mg), CYP2D6 EM (EM/Bup), n=13, plasma, read-out: Cmax S
[22] = both sexes, oral, bupropion+MDMA (125 mg), CYP2D6 EM (EM/Bup), n=13, plasma, read-out: t1/2 S (converted)
[23] = both sexes, oral, bupropion+MDMA (125 mg), CYP2D6 EM (EM/Bup), n=13, plasma, read-out: tmax S
[24] = im, placebo+MDMA (125 mg), CYP2D6 IM, n=3, plasma, read-out: AUC0-24h S
[25] = im, placebo+MDMA (125 mg), CYP2D6 IM, n=3, plasma, read-out: Cmax S
[26] = im, placebo+MDMA (125 mg), CYP2D6 IM, n=3, plasma, read-out: t1/2 S (converted)
[27] = im, placebo+MDMA (125 mg), CYP2D6 IM, n=3, plasma, read-out: tmax S
[28] = bupropion vs placebo pretreatment
[29] = bupropion vs placebo pretreatment, CYP2D6 EMs

SMILES	metabolite/MDMA ratio, mean constant (after approximately 2 h) ([2]; IMs)	metabolite/MDMA ratio, mean initial (highest, first hour) ([2]; IMs)	change in AUC24 after bupropion pretreatment ([2]; CYP2D6 EMs) [%]	change in Cmax after bupropion pretreatment ([2]; CYP2D6 EMs) [%]	metabolite/MDMA ratio, mean constant (after approximately 2 h) ([2]; bupropion-pretreated EMs)	metabolite/MDMA ratio, mean initial (highest, first hour) ([2]; bupropion-pretreated EMs)	metabolite/MDMA ratio, mean constant (after approximately 2 h) ([2]; placebo-pretreated EMs)	metabolite/MDMA ratio, mean initial (highest, first hour) [2, 15]	AUC(0-t) [2, 16] [µM·h]	Cmax [2, 17] [nM]	half-life [2, 18] [h]	Tmax [2, 19] [h]	AUC(0-t) [2, 20] [µM·h]	Cmax [2, 21] [nM]	half-life [2, 22] [h]	Tmax [2, 23] [h]	AUCtotal S [2, 11]	AUC(0-t) [2, 24] [µM·h]	Cmax [2, 25] [nM]	half-life [2, 26] [h]	other results
C[C@@H]1NC(C)(C)CO[C@@]1(O)c1cccc(Cl)c1 [S,S-hydroxybupropion, hydroxybupropion]	–	–	–	–	–	–	–	–	–	–	–	–	–	–	–	–	–	–	–	–	effect of MDMA co-administration on plasma concentrations [1]: did not significantly alter
CNC(C)Cc1ccc(OC2OC(C(=O)O)C(O)C(O)C2O)c(OC)c1 (stereo not drawn) [R-HMMA glucuronide]	0.05	0.05	-71	-77	0.05	0.09	0.40	1.3	–	–	–	–	–	–	–	–	–	–	–	–	AUC(0-t) [2, 3]: 3.3 µM·h; Tmax [2, 4]: 3.7 h; AUC(0-t) [2, 5]: 0.96 µM·h; Cmax [2, 6]: 49 nM; half-life [2, 7]: 31.7 h; Tmax [2, 8]: 7.6 h; Cmax [2, 9]: 210 nM; half-life [2, 10]: 16 h; AUCtotal R [2, 11]: 2.3 (1.5) μmol/l*h-1; tonset (time of first detection), mean [2, 12]: 0.73 h; AUCtotal R [2, 13]: 5.5 (4.3) μmol/l*h-1; AUCtotal R [2, 14]: 2.0 (1.7) μmol/l*h-1; tonset (time of first detection), mean ([2]; placebo-pretreated CYP2D6 EMs): 0.41 h
CNC(C)Cc1ccc(OC2OC(C(=O)O)C(O)C(O)C2O)c(OC)c1 (stereo not drawn) [S-HMMA glucuronide]	0.20	0.30	-74	-82	0.20	0.10	1.3	5.6	5.2	490	6.1	2.9	1.3	88	9	4.9	1.7 (1.0) μmol/l*h-1	1.3	99	7.1	tonset (time of first detection), mean [2, 12]: 0.71 h; Tmax [2, 27]: 4 h; AUCtotal S [2, 13]: 5.5 (3.9) μmol/l*h-1; AUCtotal S [2, 14]: 1.5 (0.83) μmol/l*h-1; tonset (time of first detection), mean ([2]; placebo-pretreated CYP2D6 EMs): 0.38 h
CN[C@@H](C)Cc1ccc(O)c(OS(=O)(=O)O)c1 [S-DHMA 3-sulfate]	0.42	8.8	-56	-67	0.34	1.8	1.1	33	6.3	590	7.3	1.5	2.8	200	11.3	2.4	3.7 (2.1) μmol/l*h-1	3	280	7	Tmax [2, 27]: 1.9 h; AUCtotal S [2, 13]: 7.1 (3.1) μmol/l*h-1; AUCtotal S [2, 14]: 3.3 (1.1) μmol/l*h-1
CNC(C)Cc1ccc(O)c(OS(=O)(=O)O)c1 (stereo not drawn) [DHMA 3-sulfate]	–	–	–	–	–	–	–	–	–	–	–	–	–	–	–	–	–	–	–	–	reduction of Cmax by bupropion [2]: approximately 40%
CN[C@H](C)Cc1ccc(OS(=O)(=O)O)c(OC)c1 [R-HMMA sulfate]	0.13	1.9	-62	-62	0.13	0.31	0.54	15.8	–	–	–	–	–	–	–	–	–	–	–	–	AUC(0-t) [2, 3]: 5.5 µM·h; Tmax [2, 4]: 2 h; AUC(0-t) [2, 5]: 2.1 µM·h; Cmax [2, 6]: 140 nM; half-life [2, 7]: 34.4 h; Tmax [2, 8]: 4.2 h; Cmax [2, 9]: 370 nM; half-life [2, 10]: 17.5 h; AUCtotal R [2, 11]: 7.1 (4.6) μmol/l*h-1; tonset (time of first detection), mean [2, 12]: 0.53 h; AUCtotal R [2, 13]: 9.6 (2.7) μmol/l*h-1; AUCtotal R [2, 14]: 3.4 (1.3) μmol/l*h-1; tonset (time of first detection), mean ([2]; placebo-pretreated CYP2D6 EMs): 0.33 h
CNC(C)Cc1ccc(OC2OC(C(=O)O)C(O)C(O)C2O)c(OC)c1 (stereo not drawn) [HMMA glucuronide]	–	–	–	–	–	–	–	–	–	–	–	–	–	–	–	–	–	–	–	–	reduction of Cmax by bupropion [2]: approximately 40%
CNC(C)Cc1ccc(OS(=O)(=O)O)c(OC)c1 (stereo not drawn) [HMMA sulfate]	–	–	–	–	–	–	–	–	–	–	–	–	–	–	–	–	–	–	–	–	change of R/S ratio for Cmax after bupropion pretreatment [2, 28]: +21%; reduction of Cmax by bupropion [2]: approximately 40%
CNC(C)Cc1ccc(OS(=O)(=O)O)c(O)c1 (stereo not drawn) [DHMA 4-sulfate]	–	–	–	–	–	–	–	–	–	–	–	–	–	–	–	–	–	–	–	–	reduction of Cmax by bupropion [2]: approximately 40%
CN[C@@H](C)Cc1ccc(OS(=O)(=O)O)c(OC)c1 [S-HMMA sulfate]	0.28	2.3	-61	-72	0.21	0.26	0.86	17.7	4.2	410	6.6	1.6	1.6	110	11.1	2.8	2.2 (0.75) μmol/l*h-1	1.7	140	6.9	tonset (time of first detection), mean [2, 12]: 0.56 h; Tmax [2, 27]: 2.5 h; AUCtotal S [2, 13]: 4.6 (1.2) μmol/l*h-1; AUCtotal S [2, 14]: 1.9 (0.34) μmol/l*h-1; tonset (time of first detection), mean ([2]; placebo-pretreated CYP2D6 EMs): 0.33 h
CN[C@@H](C)Cc1ccc2c(c1)OCO2 [S-MDMA, 3,4-methylenedioxymethamphetamine]	–	–	38	16	–	–	–	–	4.9	560	4.5	2.1	6.8	650	5.7	2.5	7.2 (1.7) μmol/l*h-1	6.8	720	5.1	prolongation of t1/2 after bupropion pretreatment [2, 29]: 26%; reduction of Cl/F after bupropion pretreatment [2, 29]: -31%; CL/F S [2, 11]: 50.5 (13.5) l/h; Tmax [2, 27]: 2.3 h; AUCtotal S [2, 13]: 5.1 (1.5) μmol/l*h-1; CL/F S [2, 13]: 72.8 (26.2) l/h; AUCtotal S [2, 14]: 7.1 (2.0) μmol/l*h-1; CL/F S [2, 14]: 50.4 (12.6) l/h
CN[C@@H](C)Cc1ccc(OS(=O)(=O)O)c(O)c1 [S-DHMA 4-sulfate]	0.05	0.91	-50	-61	0.04	0.60	0.11	3.8	0.64	55	8.1	1.7	0.32	21	14.3	2.4	0.48 (0.19) μmol/l*h-1	0.4	29	12.1	Tmax [2, 27]: 2.1 h; AUCtotal S [2, 13]: 0.80 (0.37) μmol/l*h-1; AUCtotal S [2, 14]: 0.59 (0.30) μmol/l*h-1
CC(N)Cc1ccc2c(c1)OCO2 (stereo not drawn) [MDA, 3,4-methylenedioxyamphetamine]	–	–	–	–	–	–	–	–	–	–	–	–	–	–	–	–	–	–	–	–	change of R/S ratio for AUC24 after bupropion pretreatment [2, 28]: -17%; change of R/S ratio for Cmax after bupropion pretreatment [2, 28]: -19%
